Source: patent US20250163119A1, “COMPOUNDS FOR THE TREATMENT OF DIABETES OR OBESITY” (Eli Lilly and Company, priority 2023, published 2025)
*1 amine or outer side, *2 acyl side, *3 side chain or, on linkers, in order; H or OH if unused. Where a SMILES comes first, the peptide text is derived from it. Side-chain parts run from the residue outwards. [ ]: non-standard residue; d: D form. The star is where a group is joined. C20 diacid = O=C(O)CCCCCCCCCCCCCCCCCCC(=O)*; γGlu = O=C(O)[C@H](CCC(=O)[*:2])N[*:1]; NMeI = CC[C@H](C)[C@H](NC)C(=O)O; αMeL = CC(C)C[C@](C)(N)C(=O)O; AEEA = NCCOCCOCC(=O)O; Aib = CC(C)(N)C(=O)O

System: MHC-II presented peptides on human dendritic cells
Assay: MAPPS assay (MHC-Associated Peptide Proteomics)
Format: cell-based
Conditions: for peptides displayed on MHC-II complexes: human dendritic cells from normal donors; for immunogenicity compared with SEQ ID NO:54: in the MAPPs assay and/or the T cell proliferation assay
Description: MAPPS profiles the MHC-II presented peptides on human dendritic cells treated with tested molecules. CD14+ cells, isolated from the PBMCs of normal human donors, were cultured and differentiated into immature DCs by incubation with IL-4 and GM-CSF. On day 4, culture media was replaced with fresh media containing tested molecules. On day 5, LPS was added to transform the cells into mature DCs. On day 6, cells were lysed in RIPA buffer with protease inhibitors. Immunoprecipitation of MHC-II complexes were performed using biotinylated anti-MHC-II antibody coupled to streptavidin beads. The bound complex was eluted and filtered. The isolated MHC-II peptides were analyzed by a mass spectrometer. Peptide identifications were generated by an internal proteomics pipeline using search algorithms with no enzyme and a bovine/human database with test sequences appended to the database. A KNIME workflow was used to process the identification files from the samples. Peptides identified from the test articles were aligned against the parent sequence of the test molecule. The output was used to determine the percentage of donors displaying MHC-II peptides from regions of the test molecule. Polypeptides comprising SEQ ID NOs:54, 49, 50, 29, 41, 45, 1, 22, 25 were tested in the MAPPs assay. […] Depending on the donors, up to three major clusters were observed, each slightly shifted from the others, altogether spanning residues 1-33.

[1] = donors displaying MHC-II peptides / donors tested
[2] = percentage of donors displaying MHC-II peptides

Row | SMILES | MAPPS Assay >10 donors with diverse MHC [1] | peptides displayed on MHC-II complexes | immunogenicity compared with SEQ ID NO:54 | MAPPS Assay >10 donors with diverse MHC [2] [%]
1 | CC[C@H](C)[C@H](NC(C)=O)C(=O)N[C@H](C(=O)N[C@H](C(=O)N[C@@H](CO)C(=O)N[C@@](C)(CC(C)C)C(=O)N[C@@H](CC(=O)O)C(=O)N[C@@H](C(=O)N1CCC[C@H]1C(=O)N[C@H](C(=O)NCC(=O)N[C@@](C)(CC(C)C)C(=O)N[C@@H](CC(C)C)C(=O)N[C@@H](CCC(N)=O)C(=O)N[C@H](C(=O)N[C@@H](CCCCN)C(=O)N[C@@H](CC(C)C)C(=O)N[C@@H](CCC(=O)O)C(=O)N[C@@H](CCC(N)=O)C(=O)N[C@@H](CCC(=O)O)C(=O)N[C@@H](CCCNC(=N)N)C(=O)N[C@@H](C)C(=O)N[C@@H](CCC(=O)O)C(=O)N[C@@H](CCCCN)C(=O)N[C@@H](C)C(=O)N[C@@H](CCCNC(=N)N)C(=O)N[C@@H](CCC(N)=O)C(=O)N[C@@H](CCC(N)=O)C(=O)N[C@@H](C)C(=O)N[C@@H](CCCCNC(=O)COCCOCCNC(=O)COCCOCCNC(=O)CC[C@H](NC(=O)CCCCCCCCCCCCCCCCCCC(=O)O)C(=O)O)C(=O)N[C@@H](CCC(=O)O)C(=O)N[C@@H](CC(N)=O)C(=O)N[C@H](C(=O)N[C@@H](CCC(=O)O)C(=O)N[C@H](C(=O)N[C@@H](CC(C)C)C(=O)N[C@@H](C)C(=O)N[C@@H](CCC(N)=O)C(=O)N[C@H](C(N)=O)C(C)C)[C@@H](C)CC)[C@@H](C)O)[C@@H](C)CC)[C@@H](C)O)C(C)C)[C@@H](C)O)C(C)C [SEQ ID NO: 29, Ac-IVTS αMeL D (D-Val) PTG αMeL LQIKLEQERAEKARQ QAK((2-[2-(2-Amino-ethoxy)-ethoxy]-acetyl)2-γE-CO-(CH2)18-CO2H)ENTEILAQV-NH2] (Ac-IVTS[αMeL]D[dV]PTG[αMeL]LQIKLEQERAEKARQQAK([AEEA-AEEA-γGlu-C20 diacid])ENTEILAQV-NH2) | 8/30 | at least one peptide cluster on MHC-II complexes in a subset of donors | substantial improvements in immunogenicity over a compound comprising SEQ ID NO:54 | 27
2 | CC[C@H](C)[C@H](NC(C)=O)C(=O)N[C@H](C(=O)N[C@H](C(=O)N[C@@H](CO)C(=O)N[C@@](C)(CC(C)C)C(=O)N[C@@H](CC(=O)O)C(=O)N[C@@H](C(=O)N1CCC[C@H]1C(=O)N[C@H](C(=O)NC(C)(C)C(=O)N[C@@](C)(CC(C)C)C(=O)N[C@@H](CC(C)C)C(=O)N[C@@H](CCC(N)=O)C(=O)N[C@H](C(=O)N[C@@H](CCCCN)C(=O)N[C@@H](CC(C)C)C(=O)N[C@@H](CCC(=O)O)C(=O)N[C@@H](CCC(N)=O)C(=O)N[C@@H](CCC(=O)O)C(=O)N[C@@H](CCCNC(=N)N)C(=O)N[C@@H](C)C(=O)N[C@@H](CCC(=O)O)C(=O)N[C@@H](CCCCN)C(=O)N[C@@H](C)C(=O)N[C@@H](CCCNC(=N)N)C(=O)N[C@@H](CCC(N)=O)C(=O)N[C@@H](CCC(N)=O)C(=O)N[C@@H](C)C(=O)N[C@@H](CCCCNC(=O)COCCOCCNC(=O)COCCOCCNC(=O)CC[C@H](NC(=O)CCCCCCCCCCCCCCCCCCC(=O)O)C(=O)O)C(=O)N[C@@H](CCC(=O)O)C(=O)N[C@@H](CC(N)=O)C(=O)N[C@H](C(=O)N[C@@H](CCC(=O)O)C(=O)N[C@H](C(=O)N[C@@H](CC(C)C)C(=O)N[C@@H](C)C(=O)N[C@@H](CCC(N)=O)C(=O)N[C@H](C(N)=O)C(C)C)[C@@H](C)CC)[C@@H](C)O)[C@@H](C)CC)[C@@H](C)O)C(C)C)[C@@H](C)O)C(C)C [SEQ ID NO: 41, Ac-IVTS αMeL D (D-Val) PT Aib αMeL LQIKLEQERAEKARQQAK((2-[2-(2-Amino-ethoxy)-ethoxy]-acetyl)2-γE-CO-(CH2)18-CO2H)ENTEILAQV-NH2] (Ac-IVTS[αMeL]D[dV]PT[Aib][αMeL]LQIKLEQERAEKARQQAK([AEEA-AEEA-γGlu-C20 diacid])ENTEILAQV-NH2) | 0/10 | no peptides displayed on MHC-II complexes | substantial improvements in immunogenicity over a compound comprising SEQ ID NO:54 | 0
3 | CC[C@H](C)[C@H](NC)C(=O)N[C@H](C(=O)N[C@H](C(=O)N[C@@H](CO)C(=O)N[C@@H](CC(C)C)C(=O)N[C@@H](CC(=O)O)C(=O)N[C@H](C(=O)N1CCC[C@H]1C(=O)N[C@H](C(=O)NCC(=O)N[C@@](C)(CC(C)C)C(=O)N[C@@H](CC(C)C)C(=O)N[C@@H](CCC(N)=O)C(=O)N[C@@H](CCCCN)C(=O)N[C@@H](CC(C)C)C(=O)N[C@H](C(=O)N[C@@H](CCC(=O)O)C(=O)N[C@@H](CCC(N)=O)C(=O)N[C@@H](CCC(=O)O)C(=O)N[C@@H](CCCCN)C(=O)N[C@@H](CCC(N)=O)C(=O)N[C@@H](CCC(=O)O)C(=O)N[C@@H](CCCCN)C(=O)N[C@@H](CCC(=O)O)C(=O)N[C@@H](CCCCN)C(=O)N[C@@H](CCC(N)=O)C(=O)N[C@@H](CCC(N)=O)C(=O)N[C@@H](C)C(=O)N[C@@H](CCCCNC(=O)COCCOCCNC(=O)COCCOCCNC(=O)CC[C@H](NC(=O)CCCCCCCCCCCCCCCCCCC(=O)O)C(=O)O)C(=O)N[C@@H](CCC(=O)O)C(=O)N[C@@H](CC(N)=O)C(=O)N[C@H](C(=O)N[C@@H](CCC(=O)O)C(=O)N[C@H](C(=O)N[C@@H](CC(C)C)C(=O)N[C@@H](C)C(=O)N[C@@H](CCC(N)=O)C(=O)N[C@H](C(N)=O)C(C)C)[C@@H](C)CC)[C@@H](C)O)[C@@H](C)CC)[C@@H](C)CC)C(C)C)[C@@H](C)O)C(C)C [SEQ ID NO: 49, (NMeI) VTSLDVPIG αMeL LQKLIEQEKQEKEKQQAK((2-[2-(2-Amino-ethoxy)-ethoxy]-acetyl)2-γE-CO-(CH2)18-CO2H)ENTEILAQV-NH2] (H-[NMeI]VTSLDVPIG[αMeL]LQKLIEQEKQEKEKQQAK([AEEA-AEEA-γGlu-C20 diacid])ENTEILAQV-NH2) | 6/26 | at least one peptide cluster on MHC-II complexes in a subset of donors | substantial improvements in immunogenicity over a compound comprising SEQ ID NO:54 | 23
4 | CC[C@H](C)[C@H](NC)C(=O)N[C@H](C(=O)N[C@H](C(=O)N[C@@H](CO)C(=O)N[C@@H](CC(C)C)C(=O)N[C@@H](CC(=O)O)C(=O)N[C@H](C(=O)N1CCC[C@H]1C(=O)N[C@H](C(=O)NCC(=O)N[C@@](C)(CC(C)C)C(=O)N[C@@H](CC(C)C)C(=O)N[C@@H](CCC(N)=O)C(=O)N[C@@H](CCCCN)C(=O)N[C@@H](CC(C)C)C(=O)N[C@@H](CC(C)C)C(=O)N[C@@H](CCC(=O)O)C(=O)N[C@@H](CCC(N)=O)C(=O)N[C@@H](CCC(=O)O)C(=O)N[C@@H](CCCNC(=N)N)C(=O)N[C@@H](C)C(=O)N[C@@H](CCC(=O)O)C(=O)N[C@@H](CCCCN)C(=O)N[C@@H](C)C(=O)N[C@@H](CCCNC(=N)N)C(=O)N[C@@H](CCC(N)=O)C(=O)N[C@@H](CCC(N)=O)C(=O)N[C@@H](C)C(=O)N[C@@H](CCCCNC(=O)COCCOCCNC(=O)COCCOCCNC(=O)CC[C@H](NC(=O)CCCCCCCCCCCCCCCCCCC(=O)O)C(=O)O)C(=O)N[C@@H](CCC(=O)O)C(=O)N[C@@H](C)C(=O)N[C@@H](C)C(=O)N[C@@H](CCC(=O)O)C(=O)N[C@H](C(=O)N[C@@H](CC(C)C)C(=O)N[C@@H](C)C(=O)N[C@@H](CCC(N)=O)C(=O)N[C@H](C(N)=O)C(C)C)[C@@H](C)CC)[C@@H](C)CC)C(C)C)[C@@H](C)O)C(C)C [SEQ ID NO: 50, (NMeI) VTSLDVPIG αMeL LQKLLEQERAEKARQQAK((2-[2-(2-Amino-ethoxy)-ethoxy]-acetyl)2-γE-CO-(CH2)18-CO2H)EAAEILAQV-NH2] (H-[NMeI]VTSLDVPIG[αMeL]LQKLLEQERAEKARQQAK([AEEA-AEEA-γGlu-C20 diacid])EAAEILAQV-NH2) | 3/10 | at least one peptide cluster on MHC-II complexes in a subset of donors | substantial improvements in immunogenicity over a compound comprising SEQ ID NO:54 | 30
